Assay results taken from US20170002011A1, “BENZENE SULFONAMIDES AS CCR9 INHIBITORS” (NORGINE B.V., priority 2013, published 2017).

How the values were obtained:
CCR9 [1] = target: T1, CCR9 (Homo sapiens, UniProt P51686); assay: FLIPR calcium flux assay using MOLT4 cells (TECK stimulation); format: cell-based; parameters: endogenous in cells; host or cells: MOLT4 (human T-cell line); details: MOLT4 cells (a human T-cell line); Ki determined from IC50 of TECK-induced intracellular calcium increase
T1 sequence (P51686 1-369): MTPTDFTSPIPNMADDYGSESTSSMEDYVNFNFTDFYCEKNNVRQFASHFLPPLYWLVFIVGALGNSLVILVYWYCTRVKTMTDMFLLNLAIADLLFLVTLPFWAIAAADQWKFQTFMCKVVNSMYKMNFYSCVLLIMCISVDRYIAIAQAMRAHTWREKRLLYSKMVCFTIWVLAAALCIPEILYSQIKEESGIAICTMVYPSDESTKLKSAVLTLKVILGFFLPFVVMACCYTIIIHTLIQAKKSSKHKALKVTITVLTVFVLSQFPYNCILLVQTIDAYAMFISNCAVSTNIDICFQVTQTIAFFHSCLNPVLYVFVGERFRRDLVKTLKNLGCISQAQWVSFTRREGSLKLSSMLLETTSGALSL
Experimental: Biological Activity: FLIPR Assay Using MOLT4 Cells
A calcium flux assay was used to determine the ability of the compounds to interfere with the binding between CCR9 and its chemokine ligand (TECK) in MOLT4 cells (a human T-cell line). MOLT4 cells were seeded (100,000 cells/well) in coming cell culture plates (Cat #3603) in assay buffer (lx HBSS, 20 mM HEPES) containing 2.5 mM Probenecid. The plate was centrifuged at 1200 rpm for 3 minutes and incubated at 37° C./5% CO2 for 2 hours. A 0.3× Fluo-4 NW calcium dye was prepared in assay buffer containing 5 mM Probenecid and stored in the dark. Each well was loaded with 25 μL of 0.3× Fluo-4 NW calcium dye and incubated at 37 C/5% CO2 for 60 minutes and then at room temperature for 30 minutes. A half-log serially diluted concentration response curve was prepared at a 4× concentration for each (10 μM-0.1 nM final assay concentration) and 25 μL of the compound then transferred to the cells (100 μL final volume) for 60 minutes prior to stimulation (30 minutes at 37° C./5% CO2 and 30 minutes at room temperature). TECK was diluted to 5× its EC50 in assay buffer (containing 0.1% [w/v] bovine serum albumin [BSA]) and 25 μL dispensed through the FLIPR instrument to stimulate the cells (125 μL final volume). The increased in intracellular calcium levels was measured with the FLIPR instrument. The potency of the compound as CCR9 antagonist was calculated as an IC50 using GraphPad Prism software (variable slope four parameter). The Ki of the compound was determined from the IC50 values using the following equation.
(§1) Ki calculation: IC50/1+(Agonist (TECK) conc. used in assay/EC50 of agonist (TECK) generated on day of experiment)

CCR9 [2] = target: T1, CCR9; assay: FLIPR calcium flux assay using hCCR9 over expressed cells (TECK stimulation); format: cell-based; parameters: expressed in transfected cells; host or cells: Chem-1 cells overexpressing hCCR9; details: Chem1-hCCR9 overexpressing cells; Ki determined from IC50 of TECK-induced intracellular calcium increase
Experimental: Biological Activity: FLIPR Assay Using hCCR9 Over Expressed Cells
A calcium flux assay was used to determine the ability of the compounds to interfere with the binding between CCR9 and its chemokine ligand (TECK) in Cheml-hCCR9 overexpressing cells. hCCR9 overexpressing cells were seeded (25,000 cells/well) into black Poly-D-Lysine coated clear bottom 96-well plates (BD Biosciences, Cat #356640) and incubated overnight at 37° C./5% CO2 in a humidified incubator. Media was aspirated and cells washed twice with 100 μL assay buffer (1×HBSS, 20 mM HEPES) containing 2.5 mM Probenecid. A 0.3× Fluo-4 NW calcium dye was prepared in assay buffer containing 5 mM Probenecid and stored in the dark. Each well was loaded with 100 μL of 0.3× Fluo-4 NW calcium dye and incubated at 37° C./5% CO2 for 60 minutes and then at room temperature for 30 minutes. A half-log serially diluted concentration response curve was prepared at a 3× final assay concentration for each compound (10 μM−0.1 nM final assay concentration) and 50 μL of the compound then transferred to the cells (150 μL final volume) for 60 minutes prior to stimulation (30 minutes at 37° C./5% CO2 and 30 minutes at room temperature). TECK was diluted to 4× its ECso in assay buffer (containing 0.1% [w/v] bovine serum albumin[BSA]) and 50 μL dispensed through the fluorometric imaging plate reader (FLIPR) instrument to stimulate the cells (200 μL final volume). The increase in intracellular calcium levels was measured with the FLIPR instrument. The potency of the compound as a CCR9 antagonist was calculated as an IC50 using GraphPad Prism software (variable slope four parameter). The Ki of the compound was determined from the IC50 values using the following equation.
as §1

Row | SMILES | Ki (CCR9 [1]) [nM] | Ki (CCR9 [2]) [nM]
1 | Cc1cc2nccc(NS(=O)(=O)c3ccc(C(C)(C)C)cc3)n2n1 [Compound 3] | 315 | 1440
2 | Cc1cc2nccc(NS(=O)(=O)c3ccc(N4CCOCC4)cc3)n2n1 [Compound 22] | 4000 | 
3 | Cc1cc2nccc(NS(=O)(=O)c3ccc(C(F)(F)F)cc3)n2n1 [Compound 23] | 1700 | 
4 | Cc1cc2nccc(NS(=O)(=O)c3ccc(Br)cc3)n2n1 [Compound 28] | 6190 | 
5 | Cc1cc2nccc(NS(=O)(=O)c3cccc(C(C)(C)C)c3)n2n1 [Compound 32] | 1780 | 
6 | Cc1cc2nccc(NS(=O)(=O)c3ccc(OC(F)F)cc3)n2n1 [Compound 33] | 1210 | 
7 | O=S(=O)(Nc1ccnc2cc(C3CC3)nn12)c1cccc(C(F)(F)F)c1 [Compound 39] | 5890 | 
8 | O=S(=O)(Nc1ccnc2cc(C3CC3)nn12)c1ccc(C(F)(F)F)cc1 [Compound 41] | 1880 | 
9 | O=S(=O)(Nc1ccnc2cc(C3CC3)nn12)c1ccc(OC(F)(F)F)cc1 [Compound 42] | 1590 | 
10 | CC(C)(C)c1cccc(S(=O)(=O)Nc2ccnc3cc(C4CC4)nn23)c1 [Compound 44] | 1420 | 
11 | O=S(=O)(Nc1ccnc2cc(C3CC3)nn12)c1cccc(OC(F)(F)F)c1 [Compound 50] | 3750 | 
12 | O=S(=O)(Nc1ccnc2cc(C3CC3)nn12)c1ccc(OC(F)F)cc1 [Compound 51] | 3200 | 
13 | CC(C)(C)c1ccc(S(=O)(=O)Nc2ccnc3cc(-c4cccnc4)nn23)cc1 [Compound 62, 4-(tert-butyl)-N-(2-(pyridin-3-yl)pyrazolo[1,5-a]pyrimidin-7-yl)benzenesulfonamide] | 253 | 
14 | CC(C)(C)c1ccc(S(=O)(=O)Nc2ccnc3cc(-c4ccc(C#N)cc4)nn23)cc1 [Compound 75, 4-(tert-butyl)-N-(2-(4-cyanophenyl)pyrazolo[1,5-a]pyrimidin-7-yl)benzenesulfonamide] | 1550 | 
15 | CCc1cc2nccc(NS(=O)(=O)c3ccc(Cl)c(C(F)(F)F)c3)n2n1 [Compound 87] | 3230 | 
16 | O=S(=O)(Nc1ccnc2cc(-c3ccc(Cl)cc3)nn12)c1ccc(-c2cnco2)cc1 [Compound 90] | 1380 | 
17 | CC(C)c1cc2c(Cl)ccc(NS(=O)(=O)c3ccc(C(F)(F)F)cc3)n2n1 [Compound 101] | 492 | 
18 | CCc1cc2c(Cl)ccc(NS(=O)(=O)c3ccc(C(F)(F)F)cc3)n2n1 [Compound 106] | 177 | 
19 | O=S(=O)(Nc1ccc(Cl)c2cc(C3CC3)nn12)c1ccc(Cl)c(C(F)(F)F)c1 [Compound 108] | 456 | 
20 | O=S(=O)(Nc1ccc(Cl)c2cc(-c3cccnc3)nn12)c1ccc(F)cc1 [Compound 115] | 640 | 
21 | O=S(=O)(Nc1ccc(Cl)c2cc(-c3ccc[n+]([O-])c3)nn12)c1ccc(OC(F)(F)F)cc1 [Compound 116] | 1030 | 
22 | CC(C)(C#N)c1ccc(S(=O)(=O)Nc2ccc(Cl)c3cc(-c4cccnc4)nn23)cc1 [Compound 123] | 219 | 
23 | COc1cncc(-c2cc3c(Cl)ccc(NS(=O)(=O)c4ccc(C(C)(C)C)cc4)n3n2)c1 [Compound 127] | 192 | 
24 | CC(C)(C)c1ccc(S(=O)(=O)Nc2ccc(Cl)c3cc(-c4cncc(F)c4)nn23)cc1 [Compound 132] | 171 | 
25 | O=S(=O)(Nc1ccc(Cl)c2cc(-c3cncc(F)c3)nn12)c1ccc(C(F)(F)F)cc1 [Compound 133] | 182 | 
26 | COc1ccc(NS(=O)(=O)c2ccc(C(C)(C)C)cc2)n2nc(-c3cccnc3)cc12 [Compound 173, 4-(tert-butyl)-N-(4-methoxy-2-(pyridin-3-yl)pyrazolo[1,5-a]pyridin-7-yl)benzenesulfonamide] | 377 | 
27 | Cc1c(-c2cc3c(Cl)ccc(NS(=O)(=O)c4ccc(C(C)(C)C)cc4)n3n2)cnn1C [Compound 187] | 318 | 
28 | CC(C)(C)c1ccc(S(=O)(=O)Nc2ccc(Cl)c3cc(-c4cnccn4)nn23)cc1 [Compound 188] | 194 | 
29 | COc1ccc(-c2cc3c(Cl)ccc(NS(=O)(=O)c4ccc(C(C)(C)C)cc4)n3n2)cn1 [Compound 197] | 189 | 
30 | COc1ncccc1-c1cc2c(Cl)ccc(NS(=O)(=O)c3ccc(C(C)(C)C)cc3)n2n1 [Compound 201] | 192 | 

The remaining compounds from weak to strong by Ki (CCR9 [1]), led by results:

Row | Ki (CCR9 [1]) [nM] | Ki (CCR9 [2]) [nM] | SMILES
31 | 170 |  | COc1cncc(-c2cc3c(Cl)ccc(NS(=O)(=O)c4ccc(C(F)(F)F)cc4)n3n2)c1 [Compound 128]
32 | 170 |  | COc1cncc(-c2cc3c(Br)ccc(NS(=O)(=O)c4ccc(C(C)(C)C)cc4)n3n2)c1 [Compound 160]
33 | 149 |  | COc1ccc(-c2cc3c(C#N)ccc(NS(=O)(=O)c4ccc(C(C)(C)C)cc4)n3n2)c(OC)n1 [Compound 210]
34 | 129 |  | Cn1cc(-c2cc3c(Br)ccc(NS(=O)(=O)c4ccc(C(C)(C)C)cc4)n3n2)cn1 [Compound 165, 4-(tert-butyl)-N-(4-bromo-2-(1-methyl-1H-pyrazol-4-yl)pyrazolo[1,5-a]pyridin-7-yl)benzenesulfonamide]
35 | 116 |  | CCn1cc(-c2cc3c(Cl)ccc(NS(=O)(=O)c4ccc(C(C)(C)C)cc4)n3n2)cn1 [Compound 185]
36 | 110 |  | CCOc1ccc(-c2cc3c(Cl)ccc(NS(=O)(=O)c4ccc(C(C)(C)C)cc4)n3n2)cn1 [Compound 194]
37 | 105 |  | Cn1nccc1-c1cc2c(Cl)ccc(NS(=O)(=O)c3ccc(C(C)(C)C)cc3)n2n1 [Compound 143]
38 | 92 |  | O=S(=O)(Nc1ccc(Cl)c2cc(-c3cccnc3)nn12)c1ccc(OC(F)(F)F)cc1 [Compound 112]
39 | 88 |  | Cc1ccncc1-c1cc2c(Cl)ccc(NS(=O)(=O)c3ccc(C(C)(C)C)cc3)n2n1 [Compound 208]
40 | 81 |  | CC(C)(C)c1ccc(S(=O)(=O)Nc2ccc(C#N)c3cc(-c4ccccn4)nn23)cc1 [Compound 193]
41 | 76 |  | CC(C)(C)c1ccc(S(=O)(=O)Nc2ccc(C#N)c3cc(-c4cncc(C#N)c4)nn23)cc1 [Compound 154, 4-(tert-butyl)-N-(4-cyano-2-(5-cyanopyridin-3-yl)pyrazolo[1,5-a]pyridin-7-yl)benzenesulfonamide]
42 | 73 |  | COc1cc(-c2cc3c(Cl)ccc(NS(=O)(=O)c4ccc(C(C)C)cc4)n3n2)c[n+]([O-])c1 [Compound 126]
43 | 39 |  | CC(C)(C)c1ccc(S(=O)(=O)Nc2ccc(C#N)c3cc(-c4ccncc4)nn23)cc1 [Compound 150]
44 | 34 |  | CCOc1ccc(-c2cc3c(C#N)ccc(NS(=O)(=O)c4ccc(C(C)(C)C)cc4)n3n2)cn1 [Compound 195]
45 | 27 |  | CC(C)(C)c1ccc(S(=O)(=O)Nc2ccc(C#N)c3cc(-c4cnco4)nn23)cc1 [Compound 170, 4-(tert-butyl)-N-(4-cyano-2-(oxazol-5-yl)pyrazolo[1,5-a]pyridin-7-yl)benzenesulfonamide]
46 | 19 | 456 | Cc1cc2nccc(NS(=O)(=O)c3ccc(-c4cnco4)cc3)n2n1 [Compound 1, N-(2-methylpyrazolo[1,5-a]pyrimidin-7-yl)-4-(oxazol-5-yl)benzenesulfonamide]
